In patent US9068970B2, “Efficient and effective supplement screening for the development of chemically defined media in cell culture” (Abbvie Inc., priority 2010, dated 2015):
Read-outs that look alike come from different tables or passages of the source. Where a SMILES comes first, the peptide text is derived from it.

Tests used:
Format in all cases: cell-based
[1] = test system: recombinant IgG producing Chinese Hamster Ovary cell line (CHO cell line #1); test: 24-well plate media supplement screening: peak viable cell density (CellTiter 96 AQueous)
Protocol: (§1) 24-well plates were utilized at a working volume of 1.5 mL per well to serve as the platform for media supplement screening. An in-house, base chemically defined media (CDM #1) was used as the basal media for the purposes of the experiments. A recombinant IgG producing Chinese Hamster Ovary cell line (CHO cell line #1) was used for the media supplement screening phase of the experiments.
All 24-well plate screening experiments were designed using JMP7 commercially available statistics software (Cary, N.C.) using custom experimental options. Six individual media supplement screening experiments were performed to test over a hundred different supplements in statistically designed experiments and in a serial fashion. All screening experiments were performed at […] cultured at 210 rpm on a shaker table in a 5% humidified CO2 incubator. Gas permeable, rayon film plate covers (VWR International, Radnor, Pa., Catalog #60941-086) were employed as necessary to provide a sterile barrier between the well plates, the plastic plate cover, and the culture atmosphere. Supplement solutions were manually pipetted into the respective plate wells using concentrated, sterile stock solutions. The comprehensive list of media supplements evaluated for cell culture process improvement is shown below in Table 2:
(§2) Two cell culture performance indicators were measured in the high-throughput screening experiments: peak viable cell density and harvest titer. Time point samples were withdrawn from each of the respective plate wells on Days 6, 7, and 8 post inoculation and measured for their respective viable cell densities spectrophotometrically via the CellTiter 96 AQueous Solution Cell Proliferation Assay Kits™ (Promega, Madison, Wis.). Harvest Titer measurements were conducted via high performance liquid chromatography (HPLC) with a Poros A™ affinity column (Applied Biosystems, Foster City, Calif.). All experimental wells supplemented with a particular combination of media compounds were compared to an unsupplemented control, with the results expressed as relative values relative to the control.
(§3) Two cell culture performance indicators were measured in the high-throughput screening experiments as well as media verification experiments; peak viable cell density (VCD) and harvest titer. […] A few days after the last cell count measurement sample the plates were centrifuged and the supernatant was collected and stored at −80° C. for future analysis. Harvest titer measurements were conducted via high performance liquid chromatography (HPLC) with a Poros A™ affinity column (Applied Biosystems, Foster City, Calif.). All experimental wells supplemented with a particular combination of media compounds were compared to an unsupplemented control, with the results expressed as values relative to the control. For the media verification experiments in larger-scale shaker and spinner flasks, viable cell density and viability were measured via Cedex automated cell counters (Roche Applied Science, Indianapolis, Ind.). Harvest titer measurements were similarly measured via HPLC.
(§4) Standard Analysis of Variance (ANOVA) was used to measure the significance of individual supplements and their respective interactions towards the resulting cell culture technique performance. Individual analyses were conducted on both peak viable cell density and harvest titer for each of the respective screening experiments. Three different levels of each media supplement were used in these experiments: unsupplemented (Level 1), lightly supplemented (Level 2), and heavily supplemented (Level 3). […] The optimization subroutine intrinsic to the statistics software was used to analyze the screening dataset determine the identity of a high performance media blend. It is important to note that the selection method is a mathematical exercise which can lead to multiple blends identified as having the highest performance parameters, and the results are highly dependent on the initial first guess.

[2] = test system: recombinant IgG producing Chinese Hamster Ovary cell line (CHO cell line #1); test: 24-well plate media supplement screening: harvest titer (HPLC, Poros A affinity column)
Protocol: as §1
All 24-well plate screening experiments were designed using JMP7 commercially available statistics software (Cary, N.C.) using custom experimental options. Six individual media supplement screening experiments were performed to test over a hundred different supplements in statistically designed experiments and in a serial fashion. […] Supplement solutions were manually pipetted into the respective plate wells using concentrated, sterile stock solutions. The comprehensive list of media supplements evaluated for cell culture process improvement is shown below in Table 2:
as §2, §3, §4
The aforementioned supplements were evaluated for improvements in cell culture technique performance.

[3] = test system: recombinant IgG producing Chinese Hamster Ovary cell line (CHO cell line #1); test: Supplement screening: process performance (peak VCD and/or harvest titer) by inspectional/statistical analysis
Protocol: as §4, with “guess. Three particular high performance blends were identified for further evaluation: […] The supplements whose relative concentrations supported a distinct pattern of either increasing or decreasing process performance were categorized into the clustered classification. […] These supplements were either compounds or groups of similar compounds such as polyamines, essential amino acids, and vitamins.” for “guess.”

[4] = test system: recombinant IgG producing Chinese Hamster Ovary cell line (CHO cell line #1); test: JMP7 statistical identification of high performance media supplementation from a 15-supplement screening experiment
Protocol: as §4
Fifteen of these supplements, or groups of supplements, were screened in a separate statistically designed experiment for the final determination of high performance media blends for the maximization of peak VCD, harvest titer, and both of these variables simultaneously.
The JMP7 statistical software program was further used to identify the high performance media supplementation for maximizing peak VCD, harvest titer, and both simultaneously.

[5] = HTS experiments, CDM #1, relative to unsupplemented control
[6] = univariate analysis of varying supplement concentrations
[7] = range given, variability in culture volumes
[8] = predicted amount for addition into the unsupplemented control media

Compound | Effect on Peak VCD [1, 5] | Effect on Harvest Titer [2, 5] | other results
Cyanocobalamin [Vitamin B-12] | No change | Decrease | 
O=C(O)CN(CCN(CC(=O)O)CC(=O)O)CC(=O)O [EDTA] | Increase | Decrease | 
Nc1ccc(C(=O)O)cc1 [PABA, Para-amino benzoic acid] | Decrease | No change | 
Concanavalin A | Decrease | Decrease | 
CNCC(=O)O [Sarcosine] | No change | Decrease | 
Cc1cn([C@H]2C[C@H](O)[C@@H](CO)O2)c(=O)[nH]c1=O [Thymidine] | No change | Decrease | Process Performance Pattern [3, 6]: Wide dispersal; Concentration Range for Increase of Peak VCD [4, 7]: (1.75 × 10^−3-2.25 × 10^−3) g/L
NCCS(=O)(=O)O [Taurine] | Decrease | Decrease | 
N[C@@H](CSSC[C@H](N)C(=O)O)C(=O)O [Cystine, L-cystine] | Decrease | Decrease | 
N[C@@H](CCC(=O)N[C@@H](CS)C(=O)NCC(=O)O)C(=O)O [Glutathione, Glutathione, reduced] | Decrease | Decrease | 
Cc1ncc(CO)c(CO)c1O.Cl [Vitamin B-6, Pyridoxine hydrochloride] | No change | Increase | 
CC(=O)N[C@H]1C(O)O[C@H](CO)[C@H](O)[C@@H]1O (some centres unmarked) [GalNAc, N-acetylgalactosamine] | No change | Decrease | 
Cl.N[C@@H](Cc1cnc[nH]1)C(=O)O.O [L-histidine*HCl*H2O] |  |  | Concentration Target (Range) for Increase of Harvest Titer [4, 8]: +0.25 (0.22-0.28) g/L; Concentration Target (Range) for Increase of Peak VCD [4, 8]: +0.21 (0.18-0.23) g/L; Concentration Target (Range) for Increase of Peak VCD and Harvest Titer [4, 8]: +0.25 (0.22-0.28) g/L
CC(=O)N[C@H]1C(O)O[C@H](CO)[C@@H](O)[C@@H]1O (some centres unmarked) [GlcNAc, N-acetylglucosamine] | Decrease | No change | 
O=C([O-])CC(O)(CC(=O)[O-])C(=O)[O-].[Na+].[Na+].[Na+] [Sodium citrate] | No change | No change | 
C[C@H](N)C(=O)N[C@@H](CCC(N)=O)C(=O)O [L-alanyl-L-glutamine] (H-Ala-Gln-OH) | Increase | No change | 
O=c1[nH]cnc2nc[nH]c12 [Hypoxanthine] |  |  | Concentration Range for Increase of Harvest Titer [4, 7]: (6.76 × 10^−4-8.68 × 10^−4) g/L; Concentration Range for Increase of Peak VCD and Harvest Titer [4, 7]: (6.76 × 10^−4-8.68 × 10^−4) g/L

Compound | Effect on Peak VCD [1, 5] | Effect on Harvest Titer [2, 5] | other results
OC[C@H]1O[C@H](O[C@H]2[C@H](O)[C@@H](O)C(O)O[C@@H]2CO)[C@H](O)[C@@H](O)[C@@H]1O (mixture of isomers) [Maltose] | No change | Increase | Process Performance Pattern [3, 6]: Wide dispersal
CC(=O)C(=O)[O-].[Na+] [Sodium pyruvate] | Decrease | No change | 
NC(=O)c1cccnc1 [Nicotinamide] | Decrease | No change | 
CCCCC/C=C\C/C=C\CCCCCCCC(=O)O [Linoleic acid] | No change | Increase | 
CCCCC/C=C\C/C=C\C/C=C\C/C=C\CCCC(=O)O [Arachidonic acid] | Decrease | Decrease | 
NCCCCN [Putrescine] | Decrease | No change | Concentration Range for Increase of Harvest Titer [4, 7]: ( 1.06 × 10^−4-1.36 × 10^−4) g/L; Concentration Range for Increase of Peak VCD and Harvest Titer [4, 7]: (1.06 × 10^−4-1.36 × 10^−4) g/L
Nc1nc(=O)c2nc(CNc3ccc(C(=O)N[C@@H](CCC(=O)O)C(=O)O)cc3)cnc2[nH]1 [Folate] |  |  | Process Performance Pattern [3, 6]: Wide dispersal
O=C(CO)[C@@H](O)[C@H](O)[C@H](O)CO [Fructose] | No change | No change | 
NCCCCNCCCN [Spermidine, free base, Spermidine] |  |  | Concentration Range for Increase of Harvest Titer [4, 7]: (4.22 × 10^−5-5.42 × 10^−5) g/L; Concentration Range for Increase of Peak VCD and Harvest Titer [4, 7]: (4.22 × 10^−5-5.42 × 10^−5) g/L
Cc1cc2nc3c(=O)[nH]c(=O)nc-3n(C[C@H](O)[C@H](O)[C@H](O)CO)c2cc1C [Riboflavin] | Decrease | No change | 
O=C[C@H](O)[C@@H](O)[C@H](O)CO [Xylose] | No change | Increase | Process Performance Pattern [3, 6]: Wide dispersal
C[N+](C)(C)CCO.[Cl-] [Choline chloride] |  |  | Effect on Peak VCD [1]: No change; Effect on Harvest Titer [2]: No change; Process Performance Pattern [3]: Wide dispersal
NCCO [Ethanolamine] | Increase | Decrease | 
O=C(O)CCCC[C@@H]1SC[C@@H]2NC(=O)N[C@@H]21 [Biotin] | No change | No change | 
C[C@]12CCC(=O)C=C1CC[C@@H]1[C@@H]2[C@@H](O)C[C@@]2(C)[C@H]1CC[C@]2(O)C(=O)CO [Hydrocortisone, reference compound] | No change | Increase | 
NCCCNCCCCNCCCN [Spermine, free base, Spermine] |  |  | Concentration Range for Increase of Harvest Titer [4, 7]: (8.11 × 10^−5-1.04 × 10^−4) g/L; Concentration Range for Increase of Peak VCD and Harvest Titer [4, 7]: (8.11 × 10^−5-1.04 × 10^−4) g/L
